Patent US7638509B2, “Diene compounds and formulations” (priority 2003, dated 2009)

Experiments:
PSA = PSA expression in LNCaP cells, Western blot; assay type: cell-based, human; conditions: 48 h, 1 μM compound + 1 nM DHT
Method: Western Blot. […] An antibody for -actin (Santa Cruz Biotechnology) was used as the internal control. Blots were quantitated by Collage software (Fotodyne).
The 33-kDa protein was quantitated. β-Actin expression was used as an internal control. […] The mean±SD of three separate experiments was determined. […] Total cell number was counted by hemocytometer. The mean of at least three determinations was determined.

wild-type AR = target: T1, wild-type AR (Homo sapiens, UniProt P10275); assay: Competitive [3H]-R1881 ligand binding assay, extracts of COS-1 transfected with wild-type AR; set-up: expressed in transfected cells; host or cells: COS-1; conditions: 1 nM [3H]-R1881, unlabeled ligand 1-10,000 nM, relative to DHT
T1 sequence (P10275 1-920): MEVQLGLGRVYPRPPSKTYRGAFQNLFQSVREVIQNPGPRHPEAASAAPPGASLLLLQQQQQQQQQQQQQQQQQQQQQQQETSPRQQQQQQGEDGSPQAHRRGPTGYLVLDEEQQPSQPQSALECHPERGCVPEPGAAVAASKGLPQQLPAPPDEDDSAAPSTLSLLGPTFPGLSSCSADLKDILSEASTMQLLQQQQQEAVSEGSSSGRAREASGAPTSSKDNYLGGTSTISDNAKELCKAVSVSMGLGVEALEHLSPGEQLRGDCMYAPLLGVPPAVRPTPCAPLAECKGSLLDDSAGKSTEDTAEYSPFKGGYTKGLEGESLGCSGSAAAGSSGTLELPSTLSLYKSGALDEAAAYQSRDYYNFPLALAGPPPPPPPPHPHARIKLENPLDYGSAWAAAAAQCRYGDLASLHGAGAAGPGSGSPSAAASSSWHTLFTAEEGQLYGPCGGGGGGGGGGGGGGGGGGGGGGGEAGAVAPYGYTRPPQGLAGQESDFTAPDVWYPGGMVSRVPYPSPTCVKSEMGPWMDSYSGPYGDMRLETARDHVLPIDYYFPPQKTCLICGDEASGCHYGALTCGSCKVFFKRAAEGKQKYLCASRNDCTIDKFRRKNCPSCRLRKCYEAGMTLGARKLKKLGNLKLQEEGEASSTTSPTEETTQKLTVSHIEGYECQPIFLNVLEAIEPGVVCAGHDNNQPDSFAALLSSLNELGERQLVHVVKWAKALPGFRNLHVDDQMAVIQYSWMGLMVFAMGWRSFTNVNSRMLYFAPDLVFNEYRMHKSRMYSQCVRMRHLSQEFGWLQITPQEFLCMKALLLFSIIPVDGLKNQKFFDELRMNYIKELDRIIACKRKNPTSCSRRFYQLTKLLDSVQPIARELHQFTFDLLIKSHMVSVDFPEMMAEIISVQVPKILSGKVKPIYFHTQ
Method: Ligand Binding Assay. Whole cell extracts from COS-1 with transient transfection of pSG5-AR, or LNCaP without transfection, were incubated for 2 h at 37° C. with 1 nM [^3H]-synthetic androgen methyltrienolone (R1881) in the presence and absence of increasing concentrations (1-10,000 nM) of unlabeled ligands. Then, hydroxyapatite (Bio-Rad) was added and stirred for 15 min at 4° C. After centrifugation and washing, radioactivity was determined by scintillation counting.
Clinically available antiandrogens have an affinity for the AR, allowing a competition with androgens for binding. To determine whether ADEK has this common feature of AR antagonists, the competitive androgen binding assay was performed.

estrogen receptor (ER) = assay: Steroid hormone specificity, ER/ERE-Luc in PC-3 cells; assay type: cell-based, human; conditions: PC-3, ER/ERE-Luc, ADEK at 0.01 mM, 0.1 mM and 1.0 mM, 24 h
Method: Cell Culture, Transfection, and Reporter Gene Assay. The human prostate cancer cell lines, LNCaP, PC-3, and DU145, and non-prostate cancer cell line COS-1 were maintained in RPMI or Dulbecco's modified Eagle's medium (DMEM) (Life Technologies) supplemented with 10% fetal bovine serum (FBS). Transfections and luciferase (Luc) assays were performed as previously described (Miyamoto, H., Yeh, S., Wilding, G. & Chang, C. (1998) Proc. Natl. Acad. Sci. USA 95, 7379-7384; Miyamoto, H., Rahman, M., Takatera, H., Kang, H.-Y., Yeh, S., Chang, H.-C., Nishimura, K., Fujimoto, N. & Chang, C. (2002) J. Biol. Chem. 277, 4609-4617). Briefly, cells seeded to reach a density of 50-60% confluence in 12 well tissue culture plates were transfected with 1.5 μg of DNA according to “SuperFect transfection” instructions (Qiagen). […] The Luc activity was determined using a Dual-Luciferase Reporter Assay System (Promega) and luminometer.
Steroid Hormone Specificity of ADEK. To characterize the steroid hormone activity of ADEK, PC-3 cells were transfected with steroid receptor/reporter (progesterone receptor (PR)/MMTV-Luc, glucocorticoid receptor (GR)/MMTV-Luc, or estrogen receptor (ER)/ERE-Luc) and analyzed for expression of the Luc reporter gene. […] The Luc activity was measured relative to that of ETOH treatment (set as 1-fold). […]

## CC(=O)O[C@H]1C=C[C@@]2(C)C(=CC[C@@H]3[C@@H]2CC[C@@]2(C)[C@H]3CCC23OCCO3)C1 [ADEK, 3β-acetoxy-17,17-ethylenedioxyandrosta-1,5-diene]
PSA
  DHT-induced PSA expression decreased to (DHT = 100%): 49%
wild-type AR
  RBA in COS-1 with AR: 6.0
Estrogen receptor (ER)
  estrogenic activity (in words): some estrogenic activity
